Results: patent US8288380B2, “Thiophenediamine derivative having urea structure” (Santen Pharmaceutical Co., Ltd., priority 2008, dated 2012)

Columns and labels:
[1] = system: HDAC (HeLa nuclear extract); experiment: Test for evaluation of HDAC inhibitory activity (HDAC Fluorimetric Assay/Drug Discovery Kit, Biomol); type: biochemical; settings: final concentration of the test compound 30 μM, values more than 100% shown as 100%
Description: Using HDAC Fluorimetric Assay/Drug Discovery Kit (manufactured by Biomol), HDAC inhibitory activity of the present compounds was measured according to the protocol included with the kit. The kit contains Buffer, HeLa nuclear extract (includes HDAC), Substrate, Developer and Trichostatin A HDAC inhibitor).
A test compound was dissolved in dimethyl sulfoxide (hereinafter referred to as “DMSO”), whereby a 2 mg/mL solution was prepared. Then, the resulting solution was diluted with Buffer containing 5% DMSO, whereby a 150 μM test compound solution was prepared.
1) To a 384-well culture plate, the test compound solution was added in an amount of 2 μL per well.
2) HeLa nuclear extract was diluted 30-fold with Buffer. The resulting solution was added in an amount of 3 μL per well, and then incubation was performed at 37° C. for 2 hours.
3) Substrate was diluted 500-fold with Buffer. The resulting solution was added in an amount of 5 μL per well (the final concentration of the test compound was 30 μM), and then incubation was performed at 37° C. for 10 minutes.
4) Developer was diluted 20-fold with Buffer and Trichostatin A (2 μM) was added to it. The resulting solution was added in an amount of 10 μL per well, and then incubation was performed at room temperature for 15 minutes.
5) The fluorescence intensity of each well was measured using multilabel counter ARVO (manufactured by Wallac) with excitation at 360 nm and emission at 460 nm.
6) A control data was obtained from the same experiment except that Buffer containing 5% DMSO was added instead of the test compound solution as the above-mentioned procedure from 1) to 5).
7) A blank data was obtained from the same experiment except that Buffer containing 5% DMSO was added instead of the test compound solution and that Buffer was added instead of Hela nuclear extract as the above-mentioned procedure from 1) to 5).
Enzyme inhibitory rate (%) was calculated using the following equation. (Enzyme Inhibitory Rate(%))=100×[1−{(Fluorescence Intensity of Test Compound Solution)−(Florescence Intensity of Blank)}/{(Florescence Intensity of Control)−(Florescence Intensity of Blank)}] (Test Results)

[2] = system: human trabecular meshwork cell line (TM-1 cells); experiment: Test for evaluation of effect of morphological change on trabecular meshwork cells (cell shape index, CSI); type: cell-based; settings: final concentration 10 μM, 24 hours incubation, Control 0.694, lower CSI indicates greater morphological changes
Excerpt: Further, as a result of studying an effect morphological change of the present compound on trabecular meshwork cells, i.e., an effect of morphological change of the present compound on trabecular meshwork cells in an evaluation system using the cell shape index (hereinafter referred to as “CSI”) reported in The Journal of Clinical Investigation, 103, 1141-1150 (1999) as an index, it was found the present compound has an excellent effect of morphological change on trabecular meshwork cells.
As a method for evaluating a cellular morphological change, an evaluation system using the cell shape index (hereinafter referred to as “CSI”) as an index has been reported in The Journal of Clinical Investigation, 103, 1141-1150 (1999). Therefore, according to the method described in the above document, an effect of morphological change of the present compounds on trabecular meshwork cells was evaluated.
A human trabecular meshwork cell line (hereinafter referred to as “TM-1 cells”) reported in Investigative Ophthalmology & Visual Science, 43, 151-161 (2002) was used.
Culture medium 1: A reagent was prepared by adding fetal bovine serum (10%), L-glutamine (2 mM), amphotericin B ([…]), and gentamicin (25 μg/mL) to Dulbecco's Modified Eagle Medium (hereinafter referred to as “D-MEM”).
Culture medium 2: A reagent was prepared by adding fetal bovine serum (3%), L-glutamine (2 mM), amphotericin B (2.5 μg/mL), and gentamicin (25 μg/mL) were added to D-MEM.
Cell staining liquid: A mixed liquid of Calcein-AM (16 μM) and Hoechst 33342 (40 μM) was prepared by diluting a Calcein-AM solution (cytoplasmic staining reagent, manufactured by Dojindo Laboratories) and a Hoechst 33342 solution (nuclear staining reagent, manufactured by Dojindo Laboratories) with D-MEM containing L-glutamine (2 mM), amphotericin B (2.5 μg/mL), and gentamicin (25 μg/mL).
TM-1 cells subcultured at 37° C. in a 8% carbon dioxide gas atmosphere were treated with a trypsin/EDTA solution (0.05% trypsin and 0.53 mM tetrasodium ethylenediaminetetraacetate) at 24 hours before performing a drug treatment mentioned below and seeded on a 96-well culture plate. The culture medium 1 was used for the subculture of the cells. The culture medium 2 was used for the cell culture after seeding the cells on the plate.
A test compound was dissolved in DMSO, whereby a 5 mM solution was prepared. Then, the resulting solution was diluted with the culture medium 2, whereby a 200 μM test compound solution was prepared.
It has been reported that Y-27632 which is a Rho kinase inhibitor induces a morphological change in trabecular meshwork cells in Investigative Ophthalmology & Visual Science, 42, 137-144 (2001). Therefore, Y-27632 (produced according to the method described in WO 90/05723) was used as a positive control, and dissolved in DMSO in the same manner as the test compound, whereby a 5 mM solution was prepared, and then, the resulting solution was diluted with the culture medium 2, whereby a 200 μM positive control compound solution was prepared.
1) To a 96-well culture plate, a solution of TM-1 cells adjusted to a cell density of […] was added in an amount of 95 μL (1.5×10^4 cells) per well.
2) Incubation was performed at 37° C. in a 8% carbon dioxide gas atmosphere for 24 hours.
3) The test compound solution or positive control compound solution was added in an amount of 5 μL per well (the final concentration of the test compound or positive control compound was 10 μM). As a control, the culture medium 2 containing DMSO (4%) was added in an amount of 5 μL per well.
4) Incubation was performed at 37° C. in a 8% carbon dioxide gas atmosphere for 24 hours.
5) The cell staining liquid was added in an amount of 10 μL per well.
6) Incubation was performed at 37° C. in a 8% carbon dioxide gas atmosphere for 1 hour to stain the cells.
7) A 37% formaldehyde solution was added in an amount of 10 μL per well.
8) Incubation was performed at room temperature for 1 hour to fix the cells. […]

| Compound | Enzyme Inhibitory Rate (%) [1] | CSI [2] |
| --- | --- | --- |
| CN1CCN(CCN(Cc2ccc(C(=O)Nc3cscc3N)nc2)C(=O)NCCc2ccc3c(c2)OCO3)CC1 [Compound No. 1-77, N-(4-Aminothiophen-3-yl)-5-[2-[3-(benzo[1,3]dioxol-5-yl)]ethyl-1-[2-(4-methylpiperazin-1-yl)ethyl]ureidomethyl]pyridine-2-carboxylic acid amide] | 100% | 0.515 |
| CCOC(=O)CNC(=O)N(CCCN1CCOCC1)Cc1ccc(C(=O)Nc2cscc2N)nc1 [Compound No. 1-88, N-(4-Aminothiophen-3-yl)-5-[3-ethoxycarbonylmethyl-1-[3-(morpholin-4-yl)propyl]ureidomethyl]pyridine-2-carboxylic acid amide] | 95% | 0.539 |
| C[C@@H](N)[C@H]1CC[C@H](C(=O)Nc2ccncc2)CC1 [Y-27632, reference compound] | – | 0.627 |
| Nc1cscc1NC(=O)c1ccc(CN(CCN2CCCC2)C(=O)NC2CCCC2)cn1 [Compound No. 1-71, N-(4-Aminothiophen-3-yl)-5-[3-cyclopentyl-1-[2-(pyrrolidin-1-yl)ethyl]ureidomethyl]pyridine-2-carboxylic acid amide] | 100% | 0.481 |
| CN(C)CCN(Cc1ccc(C(=O)Nc2cscc2N)nc1)C(=O)NCCc1ccccc1 [Compound No. 1-8, N-(4-Aminothiophen-3-yl)-5-[1-(2-dimethylaminoethyl)-3-phenethylureidomethyl]pyridine-2-carboxylic acid amide] | 96% | 0.548 |
| Nc1cscc1NC(=O)c1ccc(CN(CCCCN2CCOCC2)C(=O)NCCc2ccccc2)cn1 [Compound No. 1-59, N-(4-Aminothiophen-3-yl)-5-[1-[4-(morpholin-4-yl)butyl]-3-phenethylureidomethyl]pyridine-2-carboxylic acid amide] | 97% | 0.500 |
| CN(C)CCCN(Cc1ccc(C(=O)Nc2cscc2N)nc1)C(=O)Nc1ccsc1 [Compound No. 1-24, N-(4-Aminothiophen-3-yl)-5-[1-(3-dimethylaminopropyl)-3-(thiophen-3-yl)ureidomethyl]pyridine-2-carboxylic acid amide] | 100% | 0.509 |
| CC(C)NC(=O)N(CCCN1CCN(C)CC1)Cc1ccc(C(=O)Nc2cscc2N)nc1 [Compound No. 1-56, N-(4-Aminothiophen-3-yl)-5-[3-isopropyl-1-[3-(4-methylpiperazin-1-yl)propyl]ureidomethyl]pyridine-2-carboxylic acid amide] | 97% | 0.422 |
| CN(C)CCN(Cc1ccc(C(=O)Nc2cscc2N)nc1)C(=O)Nc1nccs1 [Compound No. 1-103, N-(4-Aminothiophen-3-yl)-5-[1-(2-dimethylaminoethyl)-3-(thiazol-2-yl)ureidomethyl]pyridine-2-carboxylic acid amide] | 97% | 0.496 |
| CN(C)CCN(Cc1ccc(C(=O)Nc2cscc2N)nc1)C(=O)Nc1ccc2c(c1)OCCO2 [Compound No. 1-1, N-(4-Aminothiophen-3-yl)-5-[3-(2,3-dihydrobenzo[1,4]dioxin-6-yl)-1-(2-dimethylaminoethyl)ureidomethyl]pyridine-2-carboxylic acid amide] | 97% | 0.527 |
| CN(C)CCN(Cc1ccc(C(=O)Nc2cscc2N)nc1)C(N)=O [Compound No. 1-104, N-(4-Aminothiophen-3-yl)-5-[1-(2-dimethylaminoethyl)ureidomethyl]pyridine-2-carboxylic acid amide] | 97% | 0.505 |
| Nc1cscc1NC(=O)c1ccc(CN(CCCN2CCOCC2)C(=O)NC2CCCC2)cn1 [Compound No. 1-34, N-(4-Aminothiophen-3-yl)-5-[3-cyclopentyl-1-[3-(morpholin-4-yl)propyl]ureidomethyl]pyridine-2-carboxylic acid amide] | 97% | 0.516 |
